Results published in patent US11559537B2, “Combination therapies using caspase-1 dependent anticancer agents and PGE2 antagonists” (Trustees of Tufts College, priority 2017, dated 2023).
Values joined by “and” are separate entries in the source; they are usually repeats but may differ in a detail not shown here. Equal values may be shown once.

Tests used:
recombinant human FAP = recombinant human FAP (Homo sapiens (Human), UniProt Q12884); assay: In vitro inhibition assay, fibroblast activation protein; type: biochemical; conditions: Z-Gly-Pro-AMC substrate
recombinant human PREP = recombinant human PREP (Homo sapiens (Human), UniProt P48147); assay: In vitro inhibition assay, prolyl oligopeptidase; type: biochemical; conditions: Z-Gly-Pro-AMC substrate
recombinant human DPP8 = recombinant human DPP8 (Homo sapiens (Human), UniProt Q6V1X1); assay: In vitro inhibition assay, dipeptidyl peptidase 8; type: biochemical; conditions: recombinant human DPP8, Gly-Pro-AMC substrate
recombinant human DPP9 = recombinant human DPP9 (Homo sapiens (Human), UniProt Q86TI2); assay: In vitro inhibition assay, dipeptidyl peptidase 9; type: biochemical; conditions: recombinant human DPP9, Gly-Pro-AMC substrate
recombinant human DPPIV = recombinant human DPPIV (Homo sapiens (Human), UniProt P27487); assay: In vitro inhibition assay, dipeptidyl peptidase IV; type: biochemical; conditions: Gly-Pro-AMC substrate, read-out: DPP4
recombinant human DPPII = recombinant human DPPII (Homo sapiens (Human), UniProt Q9UHL4); assay: In vitro inhibition assay, dipeptidyl peptidase II; type: biochemical; conditions: Lys-Pro-AMC substrate, read-out: DPP2
[1] = tested on: MB49 murine urothelial carcinoma; assay: MB49 efficacy studies; type: in vivo, mouse
[2] = cited from earlier work

Sequence of recombinant human DPP8 (Q6V1X1 whole entry): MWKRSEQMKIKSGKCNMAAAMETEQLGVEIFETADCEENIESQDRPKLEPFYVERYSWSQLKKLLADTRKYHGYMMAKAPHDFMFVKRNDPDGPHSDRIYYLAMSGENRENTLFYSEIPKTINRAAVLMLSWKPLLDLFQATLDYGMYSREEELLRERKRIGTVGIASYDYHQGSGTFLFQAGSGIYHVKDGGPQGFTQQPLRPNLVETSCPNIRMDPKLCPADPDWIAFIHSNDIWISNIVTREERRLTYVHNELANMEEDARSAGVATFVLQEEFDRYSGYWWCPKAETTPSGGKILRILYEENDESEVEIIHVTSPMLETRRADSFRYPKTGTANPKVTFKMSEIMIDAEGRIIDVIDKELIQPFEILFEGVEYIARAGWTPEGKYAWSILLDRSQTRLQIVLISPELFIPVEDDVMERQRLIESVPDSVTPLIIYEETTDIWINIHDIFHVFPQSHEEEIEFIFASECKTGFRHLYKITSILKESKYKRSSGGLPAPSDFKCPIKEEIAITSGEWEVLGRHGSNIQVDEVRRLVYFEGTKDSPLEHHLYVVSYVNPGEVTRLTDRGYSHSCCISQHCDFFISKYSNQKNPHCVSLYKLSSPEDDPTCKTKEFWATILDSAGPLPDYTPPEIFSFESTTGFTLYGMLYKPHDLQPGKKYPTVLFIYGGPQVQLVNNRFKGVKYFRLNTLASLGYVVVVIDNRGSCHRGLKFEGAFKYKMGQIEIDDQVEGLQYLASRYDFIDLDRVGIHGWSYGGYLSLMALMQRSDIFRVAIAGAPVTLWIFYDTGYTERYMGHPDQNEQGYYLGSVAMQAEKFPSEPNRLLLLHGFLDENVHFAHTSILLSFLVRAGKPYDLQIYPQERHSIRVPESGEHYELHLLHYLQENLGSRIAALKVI
Sequence of recombinant human PREP (P48147 whole entry): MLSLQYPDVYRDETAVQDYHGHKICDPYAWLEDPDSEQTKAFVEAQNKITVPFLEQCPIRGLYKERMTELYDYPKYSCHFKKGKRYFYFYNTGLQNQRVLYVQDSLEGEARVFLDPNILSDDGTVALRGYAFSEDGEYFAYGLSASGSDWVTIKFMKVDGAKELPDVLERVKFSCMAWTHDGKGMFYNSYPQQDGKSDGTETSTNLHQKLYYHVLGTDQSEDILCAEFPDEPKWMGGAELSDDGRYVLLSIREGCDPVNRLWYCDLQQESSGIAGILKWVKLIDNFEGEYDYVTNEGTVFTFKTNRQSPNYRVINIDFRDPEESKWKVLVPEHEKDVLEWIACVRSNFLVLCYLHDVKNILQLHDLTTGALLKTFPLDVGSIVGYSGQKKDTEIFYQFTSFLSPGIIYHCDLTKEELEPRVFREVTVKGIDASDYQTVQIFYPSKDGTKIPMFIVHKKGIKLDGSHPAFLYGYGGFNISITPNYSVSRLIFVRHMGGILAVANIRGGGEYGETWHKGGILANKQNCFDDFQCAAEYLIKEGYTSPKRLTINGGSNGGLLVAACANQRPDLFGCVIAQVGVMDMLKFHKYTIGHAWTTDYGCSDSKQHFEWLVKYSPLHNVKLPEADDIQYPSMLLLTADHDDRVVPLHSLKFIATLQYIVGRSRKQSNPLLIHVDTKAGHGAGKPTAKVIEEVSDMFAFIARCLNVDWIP
Sequence of recombinant human DPP9 (Q86TI2 whole entry): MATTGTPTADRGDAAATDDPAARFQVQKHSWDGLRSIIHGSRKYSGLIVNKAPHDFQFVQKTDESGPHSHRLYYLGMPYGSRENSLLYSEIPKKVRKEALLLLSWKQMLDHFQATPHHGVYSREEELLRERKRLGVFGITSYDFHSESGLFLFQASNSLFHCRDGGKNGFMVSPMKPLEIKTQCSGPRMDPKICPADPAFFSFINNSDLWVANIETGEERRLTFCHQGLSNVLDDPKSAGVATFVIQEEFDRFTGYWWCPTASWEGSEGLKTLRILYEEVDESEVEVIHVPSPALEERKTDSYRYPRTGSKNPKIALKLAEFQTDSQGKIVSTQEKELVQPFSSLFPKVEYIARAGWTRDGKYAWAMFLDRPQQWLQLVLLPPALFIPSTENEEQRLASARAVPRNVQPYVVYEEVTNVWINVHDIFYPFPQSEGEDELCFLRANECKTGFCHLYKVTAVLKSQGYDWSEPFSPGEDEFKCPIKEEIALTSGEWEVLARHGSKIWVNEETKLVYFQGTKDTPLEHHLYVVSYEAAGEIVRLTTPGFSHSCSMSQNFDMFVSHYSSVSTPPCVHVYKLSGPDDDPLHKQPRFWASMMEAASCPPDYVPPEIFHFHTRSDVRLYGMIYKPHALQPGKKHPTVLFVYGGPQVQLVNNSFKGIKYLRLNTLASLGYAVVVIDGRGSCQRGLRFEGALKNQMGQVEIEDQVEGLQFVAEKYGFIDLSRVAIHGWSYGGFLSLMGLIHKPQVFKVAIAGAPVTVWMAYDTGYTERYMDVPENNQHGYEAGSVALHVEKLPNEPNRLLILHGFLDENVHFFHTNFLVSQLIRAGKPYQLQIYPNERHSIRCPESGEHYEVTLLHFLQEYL
Sequence of recombinant human DPPIV (P27487 whole entry): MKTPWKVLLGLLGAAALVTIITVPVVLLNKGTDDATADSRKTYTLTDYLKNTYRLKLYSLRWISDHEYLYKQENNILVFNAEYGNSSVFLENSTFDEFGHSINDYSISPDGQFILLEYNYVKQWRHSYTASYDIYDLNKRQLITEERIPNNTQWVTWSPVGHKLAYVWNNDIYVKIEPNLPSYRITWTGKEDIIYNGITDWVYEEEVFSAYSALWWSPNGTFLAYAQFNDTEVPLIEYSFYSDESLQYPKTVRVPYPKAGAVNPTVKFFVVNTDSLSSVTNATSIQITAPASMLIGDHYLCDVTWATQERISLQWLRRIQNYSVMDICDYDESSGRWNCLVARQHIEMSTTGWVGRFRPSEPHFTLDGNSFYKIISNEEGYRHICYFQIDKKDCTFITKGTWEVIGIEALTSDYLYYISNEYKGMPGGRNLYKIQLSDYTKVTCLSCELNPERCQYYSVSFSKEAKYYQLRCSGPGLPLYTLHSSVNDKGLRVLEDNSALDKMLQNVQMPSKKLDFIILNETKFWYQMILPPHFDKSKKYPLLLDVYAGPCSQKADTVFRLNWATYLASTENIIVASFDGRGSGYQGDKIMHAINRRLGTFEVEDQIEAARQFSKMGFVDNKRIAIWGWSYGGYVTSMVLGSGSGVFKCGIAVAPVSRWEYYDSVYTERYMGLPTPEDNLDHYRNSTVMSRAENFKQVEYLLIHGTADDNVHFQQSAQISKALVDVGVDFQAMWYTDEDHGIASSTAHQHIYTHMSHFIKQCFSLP
Sequence of recombinant human FAP (Q12884 whole entry): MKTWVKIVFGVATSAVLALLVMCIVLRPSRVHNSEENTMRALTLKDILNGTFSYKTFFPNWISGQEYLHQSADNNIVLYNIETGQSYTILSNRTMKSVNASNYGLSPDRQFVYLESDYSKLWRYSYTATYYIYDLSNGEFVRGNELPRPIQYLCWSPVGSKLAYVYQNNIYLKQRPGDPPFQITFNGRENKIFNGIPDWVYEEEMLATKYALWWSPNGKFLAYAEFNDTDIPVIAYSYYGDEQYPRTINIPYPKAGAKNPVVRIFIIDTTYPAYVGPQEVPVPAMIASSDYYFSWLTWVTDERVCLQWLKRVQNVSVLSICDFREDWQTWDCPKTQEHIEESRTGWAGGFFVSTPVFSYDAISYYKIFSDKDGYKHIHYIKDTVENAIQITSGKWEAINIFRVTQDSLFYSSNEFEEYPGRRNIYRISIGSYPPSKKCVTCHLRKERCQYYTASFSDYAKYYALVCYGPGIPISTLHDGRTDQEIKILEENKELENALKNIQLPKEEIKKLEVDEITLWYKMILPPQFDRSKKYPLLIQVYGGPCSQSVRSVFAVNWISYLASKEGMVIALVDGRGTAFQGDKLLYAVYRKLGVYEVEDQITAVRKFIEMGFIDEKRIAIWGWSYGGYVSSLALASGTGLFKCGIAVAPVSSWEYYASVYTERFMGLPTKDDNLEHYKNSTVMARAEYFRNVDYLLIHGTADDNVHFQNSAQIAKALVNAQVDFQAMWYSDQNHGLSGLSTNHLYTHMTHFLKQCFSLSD

| IC50 (recombinant human FAP) [µM] | IC50 (recombinant human PREP) [µM] | IC50 (recombinant human DPPIV) [µM] | IC50 (recombinant human DPPII) | SMILES | also measured |
| --- | --- | --- | --- | --- | --- |
| > 100 | > 100 |  |  | CC[C@@H](C)C(N)C(=O)N1Cc2ccc(F)cc2C1 (some centres unmarked) [compound 5291, reference compound] |  |
| > 100 | > 100 | 60.3 | > 100 µM | O=C([C@@H]1CCCCN1)N1Cc2ccc(F)cc2C1 [compound 5323] | IC50 (recombinant human DPP8): 0.862 µM; IC50 (recombinant human DPP9): 0.305 µM |
|  |  | 0.002 | 0.012 µM | CC[C@@H](C)[C@H](N)C(=O)N1CCC[C@H]1B(O)O [compound 4317] |  |
|  |  |  | 10 µM | CC(C)[C@@H](C(=O)N1CCC[C@H]1B(O)O)N(C)C [2504 C] |  |
|  |  | 0.0012 | 0.0078 µM | CC[C@H](C)[C@H](N)C(=O)N1CCC[C@H]1B(O)O [compound 4316] |  |
|  |  | 0.002 | 6.4 µM | CC(C)[C@H](N)C(=O)N1C[C@H](O)C[C@H]1B(O)O [compound 4312] |  |
|  |  | 0.009 | 0.61 µM | CC(C)[C@H](N)C(=O)N1C[C@@H](O)C[C@H]1B(O)O [4312 S] |  |
|  |  |  |  | Cc1ccc(-c2cc(C(F)(F)F)nn2-c2ccc(S(N)(=O)=O)cc2)cc1 [celecoxib] | tumor growth rates compared to control (vehicle) ([1]; celecoxib alone, various concentrations, MB49 tumor bearing mice): no observed differences in tumor growth rates compared to control |
| 0.15 |  | 0.0016 | 0.001 µM | CC(C)C[C@H](N)C(=O)N1CCC[C@H]1B(O)O [compound 1454] |  |
|  |  |  | 0.0014 µM and 0.001 µM | C[C@H](N)C(=O)N1CCC[C@H]1B(O)O [compound 1129] |  |
|  |  |  |  | CC(C)[C@H](N)C(=O)N1CCC[C@H]1B(O)O [compound 2054, Valine-boroProline] | tumor regression in combination with celecoxib ([1]; 20 microgram dose of Val-boroPro, individual animal curves): facilitated the achievement of tumor regression; antitumor activity in combination with celecoxib ([1]; MB49 tumor bearing mice, Val-boroPro + celecoxib): increased the antitumor activity of Val-boroPro markedly (statistically significantly) and in a dose-dependent manner; efficacy in phase II trials ([2]; in combination with standard cytotoxic chemotherapy): did not meet the endpoints for efficacy; partial response ([2]; phase I, talabostat and rituximab, rituximab-resistant lymphoma): 3 patients; patients with improvement in grade 3 neutropenia ([2]; phase I, thirteen patients, concomitant immunosuppressive chemotherapy): five |
| > 100 | > 100 | > 100 | 63.8 µM | N[C@H](C(=O)N1Cc2ccc(F)cc2C1)C1CCCCC1 [compound 5311] | IC50 (recombinant human DPP8): 81 µM |
|  |  | 0.0013 | 0.054 µM | O=C([C@@H]1CCCN1)N1CCC[C@H]1B(O)O [compound 1181] |  |
|  |  | 0.0011 | 0.012 µM | N[C@@H](CCC(=O)O)C(=O)N1CCC[C@H]1B(O)O [compound 8120] |  |
| > 100 | > 100 | 0.0045 | 4.18 µM | CC(C)[C@H](N)C(=O)N1CCC[C@H]1C(=O)CO [compound 5298] |  |
| > 100 | > 100 | 54.8 | 22.1 µM | CN(C)C(=O)C[C@H](N)C(=O)N1Cc2ccc(F)cc2C1 [compound 5317] |  |
| > 100 |  |  | 26.5 µM | N[C@H](C(=O)N1Cc2ccc(F)cc2C1)C1CCCC1 [compound 5333] |  |
| > 100 | > 100 |  | 36.8 µM | CC(C)(C)[C@H](N)C(=O)N1Cc2ccc(F)cc2C1 [compound 5322] |  |
| 11 |  |  | 1.7 µM | CN(CB(O)O)C(=O)[C@@H](N)CCC(=O)O [compound 2408] |  |
| > 100 | > 100 | > 100 | 0.842 µM | NCCCC[C@H](N)C(=O)N1Cc2ccc(F)cc2C1 [compound 5325] | IC50 (recombinant human DPP8): 0.123 µM |
| 0.13 |  |  |  | C[C@H](N)C(=S)N1CCC[C@H]1B(O)O [compound 2243] |  |
| > 100 | > 100 |  | 44.9 µM | CC(C)[C@H](N)C(=O)N1Cc2ccc(F)cc2C1 [compound 5321] |  |
|  |  | 0.0012 | 0.0021 µM | N[C@H](C(=O)N1CCC[C@H]1B(O)O)C1CCCCC1 [compound 1797] |  |
|  | > 100 |  | 0.095 µM | CC[C@@H](C)[C@H](N)C(=O)N1Cc2ccccc2[C@H]1B(O)O [1049 C] |  |
| > 100 | > 100 | > 100 | 92.2 µM | NC(=O)C[C@H](N)C(=O)N1Cc2ccc(F)cc2C1 [compound 5316] | IC50 (recombinant human DPP8): 4.11 µM |
|  |  | 1.38 |  | N[C@H](C(=O)N1Cc2ccccc2C1)C1CCCCC1 [3360 C] |  |
| > 100 | 25.1 | > 100 | 36.5 µM | NC1(C(=O)N2CCSC2)CCNCC1 [compound 5554] | IC50 (recombinant human DPP8): > 100 µM; IC50 (recombinant human DPP9): > 100 µM |

| SMILES | IC50 (recombinant human FAP) [µM] | IC50 (recombinant human PREP) [µM] | IC50 (recombinant human DPPIV) [µM] | IC50 (recombinant human DPPII) | also measured |
| --- | --- | --- | --- | --- | --- |
| N[C@@H](Cc1ccccc1)C(=O)N1CCC[C@H]1B(O)O [compound 1336] |  |  | 0.002 |  |  |
| CC[C@H](N)C(=O)N1CCC[C@H]1B(O)O [compound 5466] |  |  |  | 0.0029 µM |  |
| NCCCC[C@H](N)C(=O)N1CCC[C@H]1B(O)O [compound 1700] |  |  | 0.0013 |  |  |
| NC1(C(=O)N2Cc3ccccc3C2)CCNCC1 [compound 5553] | > 100 |  | > 100 | 0.978 µM | IC50 (recombinant human DPP8): > 100 µM |
| CC(C)(C)[C@H](N)C(=O)N1CCC[C@H]1C#N [compound 9987] |  | > 100 |  | > 100 µM |  |
| NC1(C(=O)N2Cc3ccc(F)cc3C2)CCNCC1 [compound 5552] | 41.1 |  |  | > 100 µM | IC50 (recombinant human DPP8): > 100 µM; IC50 (recombinant human DPP9): > 100 µM |
